Measurements as given in patent publication US10364256B2 (GlaxoSmithKline Intellectual Property Development Limited, priority 2015, dated 2019).

Tests used:
[1] = molecular target: T1, full length Keap1 protein / full length NRF2 protein (Homo sapiens, UniProt Q14145); assay: NRF2-Keap1 TR-FRET Assay; type: binding; conditions: 25 nM Keap1-FlagHis and 50 nM biotin-NRF2 added
T1 construct: full length NRF2 protein and full length Keap1 protein (Keap1 exists a dimer) are used; His
How it was run: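 Displacement of biotinylated full-length NRF2 from full-length Keap1 read by Eu/APC TR-FRET (665/615 nm) after 1 h detection at RT. Compound, 3-fold series, first incubated with Keap1 at 37 °C for 2.25 h, NRF2 then added at 4 °C for 1.25 h; pIC50 by four-parameter equation.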

[2] = molecular target: T1, full length Keap1 protein / full length NRF2 protein; assay: NRF2-Keap1 TR-FRET Low Protein Assay; type: binding; conditions: 1.25 nM Keap1 FlagHis and 2.5 nM biotin-NRF2 added
How it was run: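 Flag-tagged full-length Keap1 was preincubated with compound (3-fold series) for 2.25 h at 37 °C in Tris pH 8.0/MgCl2/NaCl/BSA/DTT/CHAPS. Biotin-Avi-NRF2 (added at 2.5 nM) was then bound for 1.25 h at 4 °C. Eu-streptavidin/anti-Flag-APC TR-FRET (665/615 nm) was read after 1 h at RT, and pIC50 came from a four-parameter fit.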

T1 sequence (Q14145 whole entry): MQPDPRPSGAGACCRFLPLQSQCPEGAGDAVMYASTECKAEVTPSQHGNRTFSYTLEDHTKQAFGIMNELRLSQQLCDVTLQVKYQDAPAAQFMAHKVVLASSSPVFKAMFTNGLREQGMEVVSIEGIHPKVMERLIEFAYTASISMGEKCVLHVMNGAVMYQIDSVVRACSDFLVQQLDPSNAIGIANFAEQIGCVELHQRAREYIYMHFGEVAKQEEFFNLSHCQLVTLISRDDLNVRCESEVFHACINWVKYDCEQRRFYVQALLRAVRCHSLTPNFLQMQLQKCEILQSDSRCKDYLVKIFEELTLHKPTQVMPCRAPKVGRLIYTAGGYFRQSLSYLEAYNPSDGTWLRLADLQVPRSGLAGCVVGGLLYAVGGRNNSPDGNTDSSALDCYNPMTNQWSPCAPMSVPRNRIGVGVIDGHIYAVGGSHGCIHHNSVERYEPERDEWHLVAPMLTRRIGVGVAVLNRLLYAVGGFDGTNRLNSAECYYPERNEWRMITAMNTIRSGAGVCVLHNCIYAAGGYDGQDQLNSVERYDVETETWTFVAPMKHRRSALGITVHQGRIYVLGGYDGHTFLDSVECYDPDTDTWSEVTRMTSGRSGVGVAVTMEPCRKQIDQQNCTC

| SMILES | IC50 [1] [nM] | IC50 [2] [nM] |
| --- | --- | --- |
| Cn1cc([C@@H]2C[C@H]2c2c(C(=O)O)cnn2-c2cccc(-c3cccc(OC[C@H]4CC[C@H](C(F)(F)F)CC4)c3)c2)nn1 (racemic) [Example 146, 5-((1,2-trans)-2-(1-Methyl-1H-1,2,3-triazol-4-yl)cyclopropyl)-1-(3′-(((1r,4R)-4-(trifluoromethyl)cyclohexyl)methoxy)-[1,1′-biphenyl]-3-yl)-1H-pyrazole-4-carboxylic acid] | 100 to 1000 | 10 to 100 |
| Cn1cc(C2CC2c2c(C(=O)O)cnn2-c2cccc(-c3cccc(OCCC(C)(C)C)c3)c2)nn1 (stereo not shown) [Example 225, 1-(3′-(3,3-Dimethylbutoxy)-[1,1′-biphenyl]-3-yl)-5-(2-(1-methyl-1H-1,2,3-triazol-4-yl)cyclopropyl)-1H-pyrazole-4-carboxylic acid] | 100 to 1000 | 10 to 100 |
| Cn1cc([C@@H]2C[C@H]2c2c(C(=O)O)cnn2-c2cccc(-c3cccc(OCC4CCCCC4)c3F)c2)nn1 (racemic) [Example 152, 1-(3′-(Cyclohexylmethoxy)-2′-fluoro-[1,1′-biphenyl]-3-yl)-5-((1,2-trans)-2-(1-methyl-1H-1,2,3-triazol-4-yl)cyclopropyl)-1H-pyrazole-4-carboxylic Acid] | 100 to 1000 | 10 to 100 |
| Cn1cc([C@@H]2C[C@H]2c2c(C(=O)O)cnn2-c2cccc(-c3cccc(OCC4CCCCC4C(F)(F)F)c3)c2)nn1 (mixture of isomers) [Example 148, 5-((1,2-trans)-2-(1-Methyl-1H-1,2,3-triazol-4-yl)cyclopropyl)-1-(3′-((2-(trifluoromethyl)cyclohexyl)methoxy)-[1,1′-biphenyl]-3-yl)-1H-pyrazole-4-carboxylic acid] | 100 to 1000 | < 10 |
| CCC[C@@H]1CCCCN1C(=O)c1cccc(-c2cccc(-n3ncc(C(=O)O)c3C3CC3c3cn(C)nn3)c2)c1F (stereo partly drawn) [Example 57, 1-(2′-Fluoro-3′-((R)-2-propylpiperidine-1-carbonyl)-[1,1′-biphenyl]-3-yl)-5-(2-(1-methyl-1H-1,2,3-triazol-4-yl)cyclopropyl)-1H-pyrazole-4-carboxylic Acid] | 10 to 100 | < 10 |
| C[C@@H]1CCC[C@H](C)N1C(=O)c1cccc(-c2cccc(-n3ncc(C(=O)O)c3C3CC3)c2)c1F [Example 21, 5-Cyclopropyl-1-(3-{3-[(2R,6S)-2,6-dimethylpiperidine-1-carbonyl]-2-fluorophenyl}phenyl)-1H-pyrazole-4-carboxylic Acid] | 100 to 1000 | 100 to 1000 |
| Cn1cc([C@@H]2C[C@H]2c2c(C(=O)O)cnn2-c2cccc(-c3cccc(OC(C4CCCCC4)C(F)(F)F)c3)c2)nn1 (mixture of isomers) [Example 157, 1-(3′-(1-Cyclohexyl-2,2,2-trifluoroethoxy)-[1,1′-biphenyl]-3-yl)-5-((1,2-trans)-2-(1-methyl-1H-1,2,3-triazol-4-yl)cyclopropyl)-1H-pyrazole-4-carboxylic Acid] | 100 to 1000 | 10 to 100 |
| CCC1CCC(COc2cccc(-c3cccc(-n4ncc(C(=O)O)c4[C@@H]4C[C@H]4c4cn(C)nn4)c3)c2)CC1 (mixture of isomers) [Example 150, 1-(3′-((4-Ethylcyclohexyl)methoxy)-[1,1′-biphenyl]-3-yl)-5-((1,2-trans)-2-(1-methyl-1H-1,2,3-triazol-4-yl)cyclopropyl)-1H-pyrazole-4-carboxylic acid] | 100 to 1000 | 10 to 100 |
| Cn1cc([C@@H]2C[C@H]2c2c(C(=O)O)cnn2-c2cccc(-c3cccc(OCC4CCCC(C(F)(F)F)C4)c3)c2)nn1 (mixture of isomers) [Example 147, 5-((1,2-trans)-2-(1-Methyl-1H-1,2,3-triazol-4-yl)cyclopropyl)-1-(3′-((3-(trifluoromethyl)cyclohexyl)methoxy)-[1,1′-biphenyl]-3-yl)-1H-pyrazole-4-carboxylic acid] | 100 to 1000 | 10 to 100 |
| CC[C@@H]1CN(Cc2cccc(-c3cccc(-n4ncc(C(=O)O)c4C4CC4c4cn(C)nn4)c3)c2)Cc2ccccc2O1 (stereo partly drawn) [Example 129, 1-(3′-(((R)-2-ethyl-2,3-dihydrobenzo[f][1,4]oxazepin-4(5H)-yl)methyl)-[1,1′-biphenyl]-3-yl)-5-(2-(1-methyl-1H-1,2,3-triazol-4-yl)cyclopropyl)-1H-pyrazole-4-carboxylic Acid] | 10 to 100 | < 10 |

Second part, the compound after the results:

| IC50 [1] [nM] | IC50 [2] [nM] | SMILES |
| --- | --- | --- |
| 10 to 100 | < 10 | Cn1cc(C2CC2c2c(C(=O)O)cnn2-c2cccc(-c3cccc(-n4ncc5c4C(C)(C)CC5)c3)c2)nn1 (stereo not shown) [Example 212, 1-(3′-(6,6-Dimethyl-5,6-dihydrocyclopenta[c]pyrazol-1(4H)-yl)-[1,1′-biphenyl]-3-yl)-5-(2-(1-methyl-1H-1,2,3-triazol-4-yl)cyclopropyl)-1H-pyrazole-4-carboxylic Acid] |
| 100 to 1000 | 100 to 1000 | Cn1cc(C2CC2c2c(C(=O)O)cnn2-c2cccc(-c3cccc(OCc4cccc(F)c4)c3)c2)nn1 (stereo not shown) [Example 224, 1-(3′-((3-Fluorobenzyl)oxy)-[1,1′-biphenyl]-3-yl)-5-(2-(1-methyl-1H-1,2,3-triazol-4-yl)cyclopropyl)-1H-pyrazole-4-carboxylic acid] |
| 1000 to 10000 | 100 to 1000 | CC1(C)CCc2cnn(-c3cccc(-c4cccc(-n5ncc(C(=O)O)c5C(F)(F)F)n4)c3)c21 [Example 204, 1-(6-(3-(6,6-Dimethyl-5,6-dihydrocyclopenta[c]pyrazol-1(4H)-yl)phenyl)pyridin-2-yl)-5-(trifluoromethyl)-1H-pyrazole-4-carboxylic Acid] |
| 100 to 1000 | 10 to 100 | COC(c1cccc(-c2cccc(-n3ncc(C(=O)O)c3C3CC3c3cn(C)nn3)c2)c1)C1CCCCC1 (stereo not shown) [Example 244, 1-(3′-(Cyclohexyl(methoxy)methyl)-[1,1′-biphenyl]-3-yl)-5-(2-(1-methyl-1H-1,2,3-triazol-4-yl)cyclopropyl)-1H-pyrazole-4-carboxylic acid] |
| 100 to 1000 | 10 to 100 | CCCC1(C)CCc2cnn(-c3cccc(-c4cccc(-n5ncc(C(=O)O)c5C5CC5)c4)c3)c21 (stereo not shown) [Example 205, 5-Cyclopropyl-1-(3′-(6-methyl-6-propyl-5,6-dihydrocyclopenta[c]pyrazol-1(4H)-yl)-[1,1′-biphenyl]-3-yl)-1H-pyrazole-4-carboxylic Acid] |
| 100 to 1000 | 10 to 100 | CC(Oc1cccc(-c2cccc(-n3ncc(C(=O)O)c3C3CC3c3cn(C)nn3)c2)c1)C1CC1 (stereo not shown) [Example 231, 1-(3′-(1-Cyclopropylethoxy)-[1,1′-biphenyl]-3-yl)-5-(2-(1-methyl-1H-1,2,3-triazol-4-yl)cyclopropyl)-1H-pyrazole-4-carboxylic acid] |
| 10 to 100 | < 10 | CCC[C@@H]1CCCCN1C(=O)c1cccc(-c2cccc(-n3ncc(C(=O)O)c3C3CC3c3cn(C)nn3)n2)c1 (stereo partly drawn) [Example 196, 5-(2-(1-Methyl-1H-1,2,3-triazol-4-yl)cyclopropyl)-1-(6-(3-((R)-2-propylpiperidine-1-carbonyl)phenyl)pyridin-2-yl)-1H-pyrazole-4-carboxylic Acid] |
| 100 to 1000 | 10 to 100 | COC(CC1CCCCC1)c1cccc(-c2cccc(-n3ncc(C(=O)O)c3C3CC3c3cn(C)nn3)c2)c1 (stereo not shown) [Example 216, 1-(3′-(2-Cyclohexyl-1-methoxyethyl)-[1,1′-biphenyl]-3-yl)-5-(2-(1-methyl-1H-1,2,3-triazol-4-yl)cyclopropyl)-1H-pyrazole-4-carboxylic Acid] |
| 100 to 1000 | 10 to 100 | COC(c1cccc(-c2cccc(-n3ncc(C(=O)O)c3C3CC3c3cn(C)nn3)c2)c1)C1CCCC1 (stereo not shown) [Example 183, 1-(3′-(Cyclopentyl(methoxy)methyl)-[1,1′-biphenyl]-3-yl)-5-(2-(1-methyl-1H-1,2,3-triazol-4-yl)cyclopropyl)-1H-pyrazole-4-carboxylic acid] |
| 1000 to 10000 | 100 to 1000 | Cn1cc([C@@H]2C[C@H]2c2c(C(=O)O)cnn2-c2cccc(-c3cncc(OCC4CCCCC4)c3)c2)nn1 (racemic) [Example 246, 1-(3-(5-(Cyclohexylmethoxy)pyridin-3-yl)phenyl)-5-(trans-2-(1-methyl-1H-1,2,3-triazol-4-yl)cyclopropyl)-1H-pyrazole-4-carboxylic Acid] |
| 100 to 1000 | 10 to 100 | CCn1cc([C@H]2C[C@@H]2c2c(C(=O)O)cnn2-c2cccc(-c3cccc(OC(C)C4CCCCC4)c3)c2)nn1 (mixture of isomers) [Example 192, 1-(3′-(1-cyclohexylethoxy)-[1,1′-biphenyl]-3-yl)-5-((1,2-trans)-2-(1-ethyl-1H-1,2,3-triazol-4-yl)cyclopropyl)-1H-pyrazole-4-carboxylic acid] |
| 1000 to 10000 | 100 to 1000 | CC(Oc1cccc(-c2cccc(-n3ncc(C(=O)O)c3[C@H]3C[C@@H]3c3cn(C)nn3)c2)c1)c1ccc(-c2ccccc2)cc1 (mixture of isomers) [Example 240, 1-(3′-(1-([1,1′-Biphenyl]-4-yl)ethoxy)-[1,1′-biphenyl]-3-yl)-5-((1,2- trans)-2-(1-methyl-1H-1,2,3-triazol-4-yl)cyclopropyl)-1H-pyrazole-4-carboxylic acid] |
| 100 to 1000 | 10 to 100 | Cn1cc([C@@H]2C[C@H]2c2c(C(=O)O)cnn2-c2cccc(-c3cccc(OCCC4CCCCC4)c3)c2)nn1 (racemic) [Example 245, 1-(3′-(2-cyclohexylethoxy)-[1,1′-biphenyl]-3-yl)-5-(trans-2-(1-methyl-1H-1,2,3-triazol-4-yl)cyclopropyl)-1H-pyrazole-4-carboxylic Acid] |
